Tests used:
[1] = Cytotoxicity against human SGC7901 cells assessed as cell growth inhibition after 72 hrs by MTT assay; type: functional, cell-based; conditions: SGC-7901, 72 h
[2] = Cytotoxicity against human HT1080 cells assessed as cell growth inhibition after 72 hrs by MTT assay; type: functional, cell-based; conditions: HT-1080, 72 h
[3] = test system: KB; test: Cytotoxicity against human KB cells assessed as cell growth inhibition after 72 hrs by MTT assay; type: functional, cell-based
[4] = target: Tubulin (Bos taurus) (UniProt Q6B856+Q862L2+Q862F3); test: (§1) Inhibition of bovine brain tubulin polymerization
[5] = target: Tubulin (Bos taurus, UniProt Q6B856+Q862L2+Q862F3); test: as §1

Compound: COc1ccc(C2=C(c3cc(OC)c(OC)c(OC)c3)C(=O)OC2=O)cc1
- IC50 [1]: 13.2 µM
- IC50 [2]: 16.5 µM
- IC50 [3]: 10.8 µM

Compound: COc1cc(C2=C(c3ccc4ccccc4c3)C(=O)N(O)C2=O)cc(OC)c1OC
- IC50 [1]: 16.5 µM
- IC50 [2]: 6.4 µM
- IC50 [3]: 10.1 µM

Compound: COc1ccc(C2=C(c3cc(OC)c(OC)c(OC)c3)C(=O)OC2=O)cc1O
- IC50 [1]: 27.9 µM
- IC50 [2]: > 30 µM
- IC50 [3]: > 30 µM

Compound: COc1cc(C2=C(c3ccc4ccccc4c3)C(=O)N(C)C2=O)cc(OC)c1OC
- IC50 [1]: 12.3 µM
- IC50 [2]: 22.5 µM
- IC50 [3]: 16.7 µM

Compound: COc1ccc(C2=C(c3cc(OC)c(OC)c(OC)c3)C(=O)N(O)C2=O)cc1
- IC50 [1]: 5.3 µM
- IC50 [2]: 4.1 µM
- IC50 [3]: 5.6 µM

Compound: COc1ccc(C2=C(c3cc(OC)c(OC)c(OC)c3)C(=O)N(O)C2=O)cc1N
- IC50 [1]: 1.3 µM
- IC50 [2]: 0.65 µM
- IC50 [3]: 1.1 µM
- inhibition [4]: Dose-dependent effect
- IC50 [5]: 3 µM

Compound: COc1ccc(C2=C(c3cc(OC)c(OC)c(OC)c3)C(=O)N(OC)C2=O)cc1O
- IC50 [1]: > 30 µM
- IC50 [2]: > 30 µM
- IC50 [3]: > 30 µM

Compound: COc1cc(C2=C(c3ccc4ccccc4c3)C(=O)OC2=O)cc(OC)c1OC
- IC50 [1]: > 30 µM
- IC50 [2]: > 30 µM
- IC50 [3]: > 30 µM

Compound: COc1ccc(C2=C(c3cc(OC)c(OC)c(OC)c3)C(=O)N(C)C2=O)cc1N
- IC50 [1]: 1.5 µM
- IC50 [2]: 0.75 µM
- IC50 [3]: 1.3 µM

Compound: COc1ccc(C2=C(c3cc(OC)c(OC)c(OC)c3)C(=O)N(OC)C2=O)cc1N
- IC50 [1]: > 30 µM
- IC50 [2]: > 30 µM
- IC50 [3]: > 30 µM

Compound: COc1ccc(C2=C(c3cc(OC)c(OC)c(OC)c3)C(=O)N(OC)C2=O)cc1
- IC50 [1]: > 30 µM
- IC50 [2]: > 30 µM
- IC50 [3]: > 30 µM

Compound: COc1ccc(/C=C\c2cc(OC)c(OC)c(OC)c2)cc1O [COMBRETASTATIN A4]
- IC50 [1]: 0.028 µM
- IC50 [2]: 0.008 µM

Compound: COc1ccc(C2=C(c3cc(OC)c(OC)c(OC)c3)C(=O)OC2=O)cc1N
- IC50 [1]: 1.6 µM
- IC50 [2]: 2.4 µM
- IC50 [3]: 2.3 µM

Compound: COc1ccc(C2=C(c3cc(OC)c(OC)c(OC)c3)C(=O)N(C)C2=O)cc1O
- IC50 [1]: 2.5 µM
- IC50 [2]: 13.3 µM
- IC50 [3]: 3 µM

Compound: COc1ccc(C2=C(c3cc(OC)c(OC)c(OC)c3)C(=O)N(C)C2=O)cc1
- IC50 [1]: 12.3 µM
- IC50 [2]: 15.6 µM
- IC50 [3]: 14.2 µM

Compound: COc1ccc(C2=C(c3cc(OC)c(OC)c(OC)c3)C(=O)N(O)C2=O)cc1O
- IC50 [1]: 4.5 µM
- IC50 [2]: 2.4 µM
- IC50 [3]: 6.7 µM

Compound: COc1cc(C2=C(c3ccc4ccccc4c3)C(=O)N(OC)C2=O)cc(OC)c1OC
- IC50 [1]: > 30 µM
- IC50 [2]: > 30 µM
- IC50 [3]: > 30 µM
